{"source": "patent EP4810054A1", "about": "“NECROPTOSIS CONTROL AGENT” (The University of Tokyo, priority 2023, dated 2025)", "key": {"[1]": {"test_system": "MSP-1 neurons", "assay": "P-MLKL immunostaining (necroptosis) of MSP-1 neurons treated with culture supernatant of TNF-α-treated astrocytes", "assay_type": "cell-based, mouse", "protocol": "(§1) To obtain differentiated astrocytes, the above MSP-1 cells were harvested and cultured overnight in the MSP-1 proliferation medium on new dishes. The next day, for differentiation into astrocytes, the cells were cultured in serum-free DMEM/F12 medium containing N-2 supplement (R&D Systems), leukemia inhibitory factor (LIF, 10 ng/ml, Fujifilm Wako Pure Chemical Industries), and ciliary neurotrophic factor (CNTF, 10 ng/ml, Fujifilm Wako Pure Chemical Industries). For differentiation into neurons, the cells were cultured in serum-free DMEM/F12 medium containing only N-2 supplement. These media are referred to as MSP-1 differentiation media. Each medium was replaced with fresh medium every 2 days. For differentiation into astrocytes, in particular, on […], the cells were exposed to tumor necrosis factor-α (TNF-α, 100 ng/ml, Fujifilm Wako Pure Chemical Industries) for 24 hours. In the anserine treatment group, the cells were pretreated with L-anserine nitrate (Fujifilm Wako Pure Chemical Industries) for 2 hours prior to the exposure to TNF-α.\nThe harvested MSP-1 cells were cultured in the MSP-1 differentiation medium on poly-L-lysine/fibronectin-coated chamber glass (4-well, Watson) and differentiated into astrocytes. After the TNF-α treatment, the cells were fixed with 4% PFA for 10 minutes and washed with TBS for 10 minutes. Subsequently, the cells were blocked with 5% BSA diluted in 0.05% TBS-X at room temperature for 60 minutes, then incubated overnight at 4°C in a blocking solution containing primary antibodies. The primary antibodies used in this study were anti-GFAP (mouse, 1:1000, Sigma), anti-NeuN (mouse, 1:1000, Millipore), anti-NF-κB p65 (rabbit, 1:500, CST), and anti-P-MLKL (rabbit, 1:2000, Abcam). The cells were then washed three times with TBS for 5 minutes each, and incubated with secondary antibodies at room temperature for 2 hours. The secondary antibodies used in this study were anti-mouse IgG donkey Alexa 488 (1:1000, Molecular Probes) and anti-rabbit IgG donkey Alexa 568 (1:1000, Molecular Probes). After washing with TBS for 5 minutes, the sections were incubated with DAPI (1:10,000, Sigma) in TBS for 5 minutes, and then washed with TBS 2 times for 5 minutes each. The cells were visualized using a confocal microscope (FV3000-L4EN-TN21, Olympus).\nTo obtain differentiated astrocytes, the MSP-1 cells were harvested and cultured overnight in the MSP-1 proliferation medium on new dishes. The next day, the medium was replaced with serum-free DMEM/F12 medium containing N-2 supplement (R&D Systems), leukemia inhibitory factor (LIF, 10 ng/ml, Wako), and ciliary neurotrophic factor (CNTF, 10 ng/ml, Wako). This medium was referred to as astrocyte differentiation medium. The culture medium was replaced with fresh medium every 2 or 3 days. […]"}, "[2]": {"assay": "Stability of anserine (temperature, storage in solution)", "assay_type": "physicochemical"}, "[3]": {"test_system": "phospho-NF-κB", "assay": "Immunostaining of phospho-NF-κB (P-P65) in TNF-α-treated MSP-1 astrocytes", "assay_type": "cell-based, mouse", "protocol": "The harvested MSP-1 cells were cultured in the MSP-1 differentiation medium on poly-L-lysine/fibronectin-coated chamber glass (4-well, Watson) and differentiated into astrocytes. After the TNF-α treatment, the cells were fixed with 4% PFA for 10 minutes and washed with TBS for 10 minutes. Subsequently, the cells were blocked with 5% BSA diluted in 0.05% TBS-X at room temperature for 60 minutes, then incubated overnight at 4°C in a blocking solution containing primary antibodies. The primary antibodies used in this study were anti-GFAP (mouse, 1:1000, Sigma), anti-NeuN (mouse, 1:1000, Millipore), anti-NF-κB p65 (rabbit, 1:500, CST), and anti-P-MLKL (rabbit, 1:2000, Abcam). […]\n(§2) The cells were cultured on poly-L-lysine/fibronectin-coated chamber glass (4-well or 8-well, Watson) containing the respective MSP-1 differentiation media to induce differentiation into astrocytes or neurons. […] The images were analyzed and quantified using ImageJ.\n(§3) Microscopic images were analyzed using the ImageJ software. For AT8, P-RIPK1, and P-MLKL staining, staining intensity was calculated. […] For P-P65 staining, only the staining intensity in the nucleus was calculated, and the data are presented as relative intensity ± S.E.M. for each group. At least 100 cells for each group were analyzed from at least 10 random images."}, "[4]": {"test_system": "MSP-1 cells differentiated into astrocytes", "assay": "RNA sequencing (DEG, GO/KEGG, GSEA) of TNF-α-treated MSP-1 astrocytes", "assay_type": "cell-based, mouse", "protocol": "as §1\nThe MSP-1 cells differentiated into astrocytes were harvested by trypsin treatment, and total RNA was isolated using the RNeasy Mini Kit (Qiagen). Samples (10 ng input) were pretreated using the SMART-seq Stranded Kit (Takara, Japan). Sequencing was performed using Illumina NovaSeq 6000 (Illumina, USA).\nGene expression levels were assessed by using transcripts per million (TPM) data, and differentially expressed genes (DEGs) were identified using the DESeq2 package in the R environment. Genes with p-values less than 0.05 were considered DEGs. […] Gene set enrichment analysis (GSEA) was performed based on the TPM data.\nOn day 5, TNF-α (100 ng/ml) was added to the MSP-1 cells differentiated into astrocytes, and the cells were treated for 24 hours. In the TNF-α + anserine group, 10 µM anserine was added to the culture medium 2 hours prior to the TNF-α treatment. These cells were harvested, and RNA sequencing (RNA-seq) analysis was performed to examine the expressed genes. […] Necroptosis-promoting factors such as C3, Ccl2, Ccl7, and Cxcl1 increased after the TNF-α treatment and decreased in the TNF-α + anserine group.\n(§4) To obtain differentiated astrocytes, the MSP-1 cells were harvested and cultured overnight in the MSP-1 proliferation medium on new dishes. The next day, the medium was replaced with serum-free DMEM/F12 medium containing N-2 supplement (R&D Systems), leukemia inhibitory factor (LIF, 10 ng/ml, Wako), and ciliary neurotrophic factor (CNTF, 10 ng/ml, Wako). This medium was referred to as astrocyte differentiation medium. The culture medium was replaced with fresh medium every 2 or 3 days. On day 5, the cells were exposed to tumor necrosis factor-α (TNF-α, 100 ng/ml, Wako) for 24 hours. For anserine treatment group, the cells were pretreated with L-anserine (Toronto Research Chemicals) for 2 hours prior to the exposure to TNF-α. To obtain differentiated neurons, the culture medium for MSP-1 cells was replaced with the serum-free DMEM/F12 medium containing N-2 supplement. This medium was referred to as neuron differentiation medium. The culture medium was replaced with fresh medium every 2 days. On day 5, the cells were treated for 24 hours with the culture supernatant of the astrocytes induced from MSP-1 cells. Nec-1 and the C3aR antagonist (SB290157) were purchased from Selleck.\nTotal RNA was isolated from isolated astrocytes and astrocytes differentiated from MSP-1 cells using RNeasy Mini Kit (Qiagen). RNA samples in an amount of 1 ng (isolated astrocytes) or 10 ng (cultured astrocytes) were pretreated using the SMART-seq Stranded Kit (Takara Bio, Japan). Sequencing was performed using Illumina NovaSeq 6000 (Illumina, USA). Gene expression levels were evaluated using transcripts per million (TPM) data, and differentially expressed genes (DEGs) were identified using the DESeq2 package in the R environment. […]"}, "[5]": {"test_system": "MSP-1 neurons", "assay": "AT8 (tau phosphorylation) immunostaining of MSP-1 neurons treated with astrocyte culture medium", "assay_type": "cell-based, mouse", "protocol": "(§5) To obtain differentiated astrocytes, the MSP-1 cells were harvested and cultured overnight in the MSP-1 proliferation medium on new dishes. The next day, the medium was replaced with serum-free DMEM/F12 medium containing N-2 supplement (R&D Systems), leukemia inhibitory factor (LIF, 10 ng/ml, Wako), and ciliary neurotrophic factor (CNTF, 10 ng/ml, Wako). This medium was referred to as astrocyte differentiation medium. The culture medium was replaced with fresh medium every 2 or 3 days. On day 5, the cells were exposed to tumor necrosis factor-α (TNF-α, 100 ng/ml, Wako) for 24 hours. For anserine treatment group, the cells were pretreated with L-anserine (Toronto Research Chemicals) for 2 hours prior to the exposure to TNF-α. […]\nas §2, §3"}, "[6]": {"test_system": "phosphorylated IKK complex", "assay": "Phosphorylated IKK immunostaining in TNF-α-treated MSP-1 astrocytes", "assay_type": "cell-based, mouse", "details": "MSP-1 astrocytes treated with TNF-α, addition of anserine; Fig. 6", "protocol": "as §4, with “Nec-1 and the C3aR antagonist (SB290157) were purchased from Selleck.” left out\nas §2"}, "[7]": {"test_system": "C3, Ccl2, Cxcl1, and iNOS", "assay": "Real-time PCR of inflammatory factor genes in TNF-α-treated MSP-1 astrocytes", "assay_type": "cell-based, mouse", "protocol": "as §5, with “TNF-α. To obtain differentiated neurons, the culture medium for MSP-1 cells was replaced with the serum-free DMEM/F12 medium containing N-2 supplement. This medium was referred to as neuron differentiation medium. The culture medium was replaced with fresh medium every 2 days.” for “TNF-α.”\nReverse transcription reactions for cDNA synthesis were performed on the isolated RNA samples (500 ng) using SuperScript™ III Reverse Transcriptase (Thermo Fisher) according to the manufacturer's instructions. […] Analysis was performed by the 2-ΔΔ-Ct method, and the results are expressed as fold changes. […]"}, "[8]": {"test_system": "MSP-1 neurons", "assay": "P-RIPK1 immunostaining of MSP-1 neurons treated with astrocyte culture medium", "assay_type": "cell-based, mouse", "details": "MSP-1 neurons treated with anserine CM", "protocol": "as §5, §2, §3"}, "[9]": {"test_system": "male albino rats with experimentally induced sepsis", "details": "carnosine 25 mg/kg and 50 mg/kg for 30 days; cited from earlier work"}, "[10]": {"details": "Example 2, MSP-1 astrocytes pretreated with anserine before TNF-α, Fig. 5A"}, "[11]": {"details": "10 µM anserine 2 hours prior to TNF-α 100 ng/ml, 24 hours, versus TNF-α group"}, "[12]": {"details": "10 µM anserine added 2 hours prior to TNF-α (100 ng/ml, 24 hours), RNA-seq"}}, "data": [{"smiles": "N=C(N)NCCCC(NC(=O)COCC(c1ccccc1)c1ccccc1)C(=O)O", "note": "(centres unmarked) [C3aR antagonist, reference compound]", "values": [{"measurement": "p-MLKL intensity", "setting": "[1]; MSP-1 neurons treated with TNF CM plus C3aRA (10 µM), Fig. 4", "value": "decreased significantly"}]}, {"smiles": "CN1C(=O)C(Cc2c[nH]c3ccccc23)NC1=S", "note": "(centres unmarked) [Nec-1, necrostatin-1, reference compound]", "values": [{"measurement": "p-MLKL intensity", "setting": "[1]; MSP-1 neurons treated with TNF CM plus Nec 1 (30 µM), Fig. 4", "value": "decreased significantly to the same level"}]}, {"smiles": "Cn1cncc1C[C@H](NC(=O)CCN)C(=O)O", "note": "[anserine, (2S)-2-[(3-amino-1-oxopropyl)amino]-3-(3-methyl-4-imidazolyl)propanoic acid]", "values": [{"measurement": "stable storage in solution (duration)", "setting": "[2]; in solution", "value": "at least two years and nine months"}, {"measurement": "stability at room temperature and under conditions of 180°C or lower", "setting": "[2]; room temperature, 180°C or lower", "value": "sufficiently stable"}, {"measurement": "NF-κB activity", "setting": "[3]; [10]", "value": "reduced"}, {"measurement": "expression of phospho-NF-κB", "setting": "[3]; anserine treatment, TNF-α-induced MSP-1 astrocytes, Figs. 2B and 2C", "value": "reduced"}, {"measurement": "Mfge8 (milk fat globule-EGF factor 8) expression (RNA-seq)", "setting": "[4]; [11]", "value": "increased"}, {"measurement": "Necroptosis-promoting factors such as C3, Ccl2, Ccl7, and Cxcl1 (expression, RNA-seq)", "setting": "[4]; [11]", "value": "decreased"}, {"measurement": "DEGs down-regulated, TNF-α + anserine vs TNF-α treatment group", "setting": "[4]; [12]", "value": 169}, {"measurement": "DEGs up-regulated, TNF-α + anserine vs TNF-α treatment group", "setting": "[4]; [12]", "value": 159}, {"measurement": "differentially expressed genes (DEGs) in the TNF-α + anserine treatment group in comparison with the TNF-α treatment group", "setting": "[4]; [12]", "value": 328}, {"measurement": "complement activation", "setting": "[4]; [10]", "value": "reduced"}, {"measurement": "expression of gene groups involved in necroptosis induction (chemokine signaling pathway, response to cytokine, immune response, TNF signaling-related genes), GO and KEGG analyses", "setting": "[4]; TNF-α + anserine group", "value": "significant decrease in expression"}, {"measurement": "expressions of inflammation-related genes, chemokine pathway, and complement activation pathway (GSEA)", "setting": "[4]; TNF-α + anserine group versus TNF-α group", "value": "decreased"}, {"measurement": "intensity of AT8", "setting": "[5]; MSP-1 neurons treated with anserine CM", "value": "significant decrease"}, {"measurement": "tau-phosphorylation (p-tau expression, AT-8 staining)", "setting": "[5]; MSP-1 neurons treated with culture medium from TNF-α + anserine group (anserine CM), Fig. 4", "value": "did not exhibit such p-tau expression"}, {"measurement": "expression of the phosphorylated IKK complex", "setting": "[6]", "value": "reduced"}, {"measurement": "intensity of P-MLKL", "setting": "[1]; MSP-1 neurons treated with anserine CM, Fig. 4", "value": "significant decrease"}, {"measurement": "necroptosis of MSP-1 neurons (expression of P-MLKL in necrosomes)", "setting": "[1]; culture supernatant containing 10 mM anserine in addition to TNF-α, compared with sham group, Fig. 3", "value": "suppressed to a degree comparable to that observed with untreated culture supernatant (sham group)"}, {"measurement": "expressions of inflammatory factors such as C3", "setting": "[7]; [10]", "value": "decreased"}, {"measurement": "expressions of C3, Ccl2, Cxcl1, and iNOS (real-time PCR)", "setting": "[7]; anserine treatment group versus TNF-α treatment group, Fig. 2D", "value": "significantly decreased"}, {"measurement": "intensity of P-RIPK1", "setting": "[8]", "value": "significant decrease"}]}, {"smiles": "NCCC(=O)N[C@@H](Cc1cnc[nH]1)C(=O)O", "note": "[carnosine]", "values": [{"measurement": "IL-β, TNF-α, and MIF", "setting": "[9]", "value": "reduced"}, {"measurement": "expression of IκBα", "setting": "[9]", "value": "increased"}, {"measurement": "increased expression of p65 and p-IKKα/β (Ser 180/Ser 181)", "setting": "[9]", "value": "suppressed"}, {"measurement": "lipid peroxidation and other antioxidant enzymes", "setting": "[9]", "value": "significantly normalized"}]}]}
